From publication PMC4704022, “Insights on FXR selective modulation. Speculation on bile acid chemical space in the discovery of potent and selective agonists” (Scientific Reports, 2016)

Key:
FXR = target: T1, FXR (Homo sapiens, UniProt Q96RI1); experiment: FXR transactivation luciferase reporter assay in transfected HepG2 cells; format: cell-based
T1 construct: expressed in transfected cells; host or cells: HepG2
T1 sequence (Q96RI1 1-486): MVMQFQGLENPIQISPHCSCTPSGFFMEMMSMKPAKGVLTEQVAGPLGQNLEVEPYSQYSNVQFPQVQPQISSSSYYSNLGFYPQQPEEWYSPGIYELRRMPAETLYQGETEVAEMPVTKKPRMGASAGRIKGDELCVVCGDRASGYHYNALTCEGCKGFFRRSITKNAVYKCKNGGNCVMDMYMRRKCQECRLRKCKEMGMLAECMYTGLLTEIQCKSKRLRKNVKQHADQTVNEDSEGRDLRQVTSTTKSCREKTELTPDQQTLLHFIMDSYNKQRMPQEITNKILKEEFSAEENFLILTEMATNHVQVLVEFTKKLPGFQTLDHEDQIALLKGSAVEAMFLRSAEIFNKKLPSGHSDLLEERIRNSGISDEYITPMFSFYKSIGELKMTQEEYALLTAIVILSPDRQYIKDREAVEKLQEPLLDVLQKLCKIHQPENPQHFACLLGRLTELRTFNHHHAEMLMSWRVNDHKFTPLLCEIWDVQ
T1 sequence (P19793 1-462 partner): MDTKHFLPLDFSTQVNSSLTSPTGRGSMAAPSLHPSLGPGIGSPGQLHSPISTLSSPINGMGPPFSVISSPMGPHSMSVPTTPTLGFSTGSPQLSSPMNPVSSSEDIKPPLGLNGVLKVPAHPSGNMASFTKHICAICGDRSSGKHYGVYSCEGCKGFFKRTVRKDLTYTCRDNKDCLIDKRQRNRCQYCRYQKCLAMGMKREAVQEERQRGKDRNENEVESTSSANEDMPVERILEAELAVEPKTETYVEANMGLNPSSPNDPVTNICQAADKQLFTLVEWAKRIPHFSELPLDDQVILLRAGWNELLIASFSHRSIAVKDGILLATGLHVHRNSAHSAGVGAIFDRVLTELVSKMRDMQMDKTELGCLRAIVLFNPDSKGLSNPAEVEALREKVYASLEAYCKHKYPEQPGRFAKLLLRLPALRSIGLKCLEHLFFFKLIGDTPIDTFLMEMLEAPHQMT
Experimental: Figure 6 Transactivation assays on FXR. (A) HepG2 cells were transfected with pSG5-FXR, pSG5-RXR, pCMV-βgal, and p(hsp27)TKLUC vectors. […] Twenty-four hour post transfection cells were stimulated with increasing concentrations of each agent: range from 100 nM to 10 μM.
To evaluate the transcriptional activity of FXR, HepG2 cells were transiently transfected with Fugene HD reagent (Promega) using the followings plasmids: pCMVSPORT-humanFXR, pSG5RXR, p(hsp27)TKLUC and pGL4.70, a plasmid containing the Renilla gene used for luciferase normalization.

CC[C@H]1[C@@H](O)[C@@H]2[C@H](CC[C@]3(C)[C@@H]([C@H](C)CCC(=O)O)CC[C@@H]23)[C@@]2(C)CCCC[C@@H]12 [compound 10, 6α-ethyl-7α-hydroxy-5β-cholan-24-oic acid]
EC50 (FXR; HepG2 cells transfected with FXR, luciferase reporter, 100 nM to 10 μM): 950 nM | FXR transactivation activity (in words) (FXR; HepG2 cells, compounds at 10 μM, CDCA 10 μM and 6-ECDCA 1 μM as positive controls): potent agonists of FXR | Tauro-conjugated bile acids (tMu, tCA, tHCA, tCDCA, tDCA, tLCA), plasmatic concentration (mice, 15 mg/kg ip, 6 h): unaffected | Blood concentration of 7α-hydroxy-4-cholesten-3-one (mice, 15 mg/kg, indirect measure of CYP7A1 activity): reduced | Form of the compound found in blood (mouse, in vivo, ip, 15 mg/kg): only found in the conjugated form with taurine
